Calls of active or inactive are those of the source. The calls are words filed in the database; no cut-off is given here.
Key:
[1] = system: HCT-116; experiment: Antiproliferative activity against human HCT-116 cells assessed as reduction in cell viability measured after 72 hrs by MTT assay; format: functional, cell-based
[2] = system: A549; experiment: Antiproliferative activity against human A549 cells assessed as reduction in cell viability measured after 72 hrs by MTT assay; format: functional, cell-based
[3] = system: 4T1; experiment: Antiproliferative activity against mouse 4T1 cells assessed as reduction in cell viability measured after 72 hrs by MTT assay; format: functional, cell-based
[4] = system: HepG2; experiment: Antiproliferative activity against human HepG2 cells assessed as reduction in cell viability measured after 72 hrs by MTT assay; format: functional, cell-based
[5] = system: HCT-116; experiment: Antiproliferative activity against human HCT-116 cells assessed as reduction in cell viability measured after 72 hrs in presence of beta-glucuronidase by MTT assay; format: functional, cell-based
[6] = system: A549; experiment: Antiproliferative activity against human A549 cells assessed as reduction in cell viability measured after 72 hrs in presence of beta-glucuronidase by MTT assay; format: functional, cell-based
[7] = system: 4T1; experiment: Antiproliferative activity against mouse 4T1 cells assessed as reduction in cell viability measured after 72 hrs in presence of beta-glucuronidase by MTT assay; format: functional, cell-based
[8] = system: HepG2; experiment: Antiproliferative activity against human HepG2 cells assessed as reduction in cell viability measured after 72 hrs in presence of beta-glucuronidase by MTT assay; format: functional, cell-based
[9] = Drug uptake in human HCT-116 cells assessed as increase in fluorescence intensity measured after 1 to 6 hrs by confocal microscopy analysis; format: ADME, cell-based; details: time 1-6 hrs
[10] = system: HCT-116; experiment: Antiproliferative activity against human HCT-116 cells assessed as reduction in cell viability treated with HSA bound prodrug measured after 72 hrs by MTT assay; format: functional, cell-based
[11] = system: A549; experiment: Antiproliferative activity against human A549 cells assessed as reduction in cell viability treated with HSA bound prodrug measured after 72 hrs by MTT assay; format: functional, cell-based
[12] = system: BXPC-3; experiment: Antiproliferative activity against human BXPC-3 cells assessed as reduction in cell viability treated with HSA bound prodrug measured after 72 hrs by MTT assay; format: functional, cell-based
[13] = system: HepG2; experiment: Antiproliferative activity against human HepG2 cells assessed as reduction in cell viability treated with HSA bound prodrug measured after 72 hrs by MTT assay; format: functional, cell-based
[14] = system: 4T1; experiment: Antiproliferative activity against mouse 4T1 cells assessed as reduction in cell viability treated with HSA bound prodrug measured after 72 hrs by MTT assay; format: functional, cell-based
[15] = system: HCT-116; experiment: Antiproliferative activity against human HCT-116 cells assessed as reduction in cell viability treated with HSA bound prodrug measured after 72 hrs in presence of beta-glucuronidase by MTT assay; format: functional, cell-based
[16] = system: A549; experiment: Antiproliferative activity against human A549 cells assessed as reduction in cell viability treated with HSA bound prodrug measured after 72 hrs in presence of beta-glucuronidase by MTT assay; format: functional, cell-based
[17] = system: BXPC-3; experiment: Antiproliferative activity against human BXPC-3 cells assessed as reduction in cell viability treated with HSA bound prodrug measured after 72 hrs in presence of beta-glucuronidase by MTT assay; format: functional, cell-based
[18] = system: HepG2; experiment: Antiproliferative activity against human HepG2 cells assessed as reduction in cell viability treated with HSA bound prodrug measured after 72 hrs in presence of beta-glucuronidase by MTT assay; format: functional, cell-based
[19] = system: 4T1; experiment: Antiproliferative activity against mouse 4T1 cells assessed as reduction in cell viability treated with HSA bound prodrug measured after 72 hrs in presence of beta-glucuronidase by MTT assay; format: functional, cell-based
[20] = Cmax in female BALB/c mouse at 25 mg/kg measured up to 120 hrs by HPLC analysis; format: ADME, organism-based; details: in vivo
[21] = Prodrug release in female BALB/c nude mouse tumor assessed as (S)-4,11-diethyl-4,9-dihydroxy-1,12-dihydro-14H-pyrano[3',4':6,7]indolizino[1,2-b]quinoline-3,14(4H)-dione accumulation at 25 mg/kg measured after 12 hr by HPLC analysis; format: ADME, organism-based, Neoplasm; details: in vivo
[22] = system: HCT-116; experiment: Antitumor activity against human HCT-116 cells xenografted in female BALB/cA nude mouse model assessed as tumor shrinkage by measuring relative tumor proliferation rate at 25 mg/kg,iv administered twice per week and measured after 24 days relative to control; format: functional; details: time 24 day
[23] = system: HCT-116; experiment: Antitumor activity against human HCT-116 cells xenografted in female BALB/cA nude mouse model assessed as tumor shrinkage at 25 mg/kg, iv administered twice per week measured after 100 days relative to control; format: functional; details: time 100 day
[24] = system: BXPC-3; experiment: Antitumor activity against human BXPC-3 cells xenografted in female BALB/cA nude mouse model assessed as suppression of tumor growth by measuring relative tumor proliferation rate at 25 mg/kg, iv measured after 24 days relative to control; format: functional; details: time 24 day
[25] = Toxicity in female BALB/cA nude mouse assessed as animal fatality at 25 mg/kg, iv administered once a week for 35 days; format: organism-based; details: in vivo, 840 h, time 35 day
[26] = Toxicity in female BALB/cA nude mouse assessed as appearance of inflammatory lesions in liver at 25 mg/kg, iv administered once a week for 35 days by H and E staining based analysis; format: organism-based; details: in vivo, 840 h, time 35 day
[27] = Toxicity in female BALB/cA nude mouse assessed as fibrotic changes in heart at 25 mg/kg, iv administered once a week for 35 days by H and E staining based analysis; format: organism-based; details: in vivo, 840 h, time 35 day
[28] = Toxicity in female BALB/cA nude mouse assessed as effect on body weight loss at 25 mg/kg, iv administered once a week for 35 days; format: organism-based; details: in vivo, 840 h, time 35 day
[29] = molecular target: Albumin (Homo sapiens, UniProt P02768); experiment: Binding affinity to human serum albumin assessed as binding rate measured within 4 mins by HPLC analysis relative to control; format: ADME; details: isolated protein
[30] = Prodrug release in human plasma assessed as (S)-4,11-diethyl-4,9-dihydroxy-1,12-dihydro-14H-pyrano[3',4':6,7]indolizino[1,2-b]quinoline-3,14(4H)-dione release measured after 7 days relative to control; format: ADME, cell-free; details: 168 h, time 7 day
[31] = Half life in female BALB/c mouse at 38 mg/kg measured up to 168 hrs by HPLC analysis; format: ADME, organism-based; details: in vivo
[32] = Clearance in female BALB/c mouse at 38 mg/kg measured up to 168 hrs by HPLC analysis; format: ADME, organism-based; details: in vivo
[33] = Toxicity in female BALB/cA nude mouse assessed as mortality at 38 mg/kg, iv administered twice per week measured after 107 days; format: organism-based; details: in vivo, 2568 h, time 107 day
[34] = Toxicity in female BALB/cA nude mouse assessed as effect on body weight loss at 38 mg/kg, iv administered twice per week measured for 107 days; format: organism-based; details: in vivo, 2568 h, time 107 day
[35] = Toxicity in female BALB/cA nude mouse assessed as appearance of fibrosis in lung at 38 mg/kg, iv measured after 24 hrs by H and E staining based analysis; format: organism-based; details: in vivo
[36] = Toxicity in female BALB/cA nude mouse assessed as animal fatality at 38 mg/kg, iv administered once a week for 35 days; format: organism-based; details: in vivo, 840 h, time 35 day
[37] = Toxicity in female BALB/cA nude mouse assessed as fibrotic changes in heart at 38 mg/kg, iv administered once a week for 35 days by H and E staining based analysis; format: organism-based; details: in vivo, 840 h, time 35 day
[38] = Toxicity in female BALB/cA nude mouse assessed as fibrotic changes in spleen at 38 mg/kg, iv administered once a week for 35 days by H and E staining based analysis; format: organism-based; details: in vivo, 840 h, time 35 day
[39] = Toxicity in female BALB/cA nude mouse assessed as fibrotic changes in lung at 38 mg/kg, iv administered once a week for 35 days by H and E staining based analysis; format: organism-based; details: in vivo, 840 h, time 35 day

Chain of Albumin (P02768 whole entry): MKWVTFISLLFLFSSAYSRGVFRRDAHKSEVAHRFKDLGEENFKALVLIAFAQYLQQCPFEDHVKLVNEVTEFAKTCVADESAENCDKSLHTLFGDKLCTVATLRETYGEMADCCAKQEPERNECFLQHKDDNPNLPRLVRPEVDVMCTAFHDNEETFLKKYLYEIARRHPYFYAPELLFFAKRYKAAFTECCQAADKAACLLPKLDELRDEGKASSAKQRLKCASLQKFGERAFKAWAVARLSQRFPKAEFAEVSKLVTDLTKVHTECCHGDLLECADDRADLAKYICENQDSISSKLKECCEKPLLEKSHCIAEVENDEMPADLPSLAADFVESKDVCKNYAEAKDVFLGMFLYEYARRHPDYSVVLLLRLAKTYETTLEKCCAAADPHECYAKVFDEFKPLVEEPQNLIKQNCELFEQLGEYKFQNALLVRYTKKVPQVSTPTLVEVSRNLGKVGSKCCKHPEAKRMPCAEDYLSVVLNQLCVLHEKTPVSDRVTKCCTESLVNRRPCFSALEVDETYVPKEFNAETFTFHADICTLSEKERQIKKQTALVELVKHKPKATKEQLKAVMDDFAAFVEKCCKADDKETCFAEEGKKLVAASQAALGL

| SMILES | Activity [1] | Activity [2] | Activity [3] | Activity [4] | Activity [5] | Activity [6] | Activity [7] | Activity [8] | Drug uptake [9] | Activity [10] | Activity [11] | Activity [12] | Activity [13] | Activity [14] | Activity [15] | Activity [16] | Activity [17] | Activity [18] | Activity [19] | Activity [29] [%] | also measured |
| --- | --- | --- | --- | --- | --- | --- | --- | --- | --- | --- | --- | --- | --- | --- | --- | --- | --- | --- | --- | --- | --- |
| CCc1c2c(nc3ccc(OCc4ccc(O[C@@H]5O[C@H](C(=O)O)[C@@H](O)[C@H](O)[C@H]5O)c(NC(=O)CCNC(=O)CCCCCN5C(=O)C=CC5=O)c4)cc13)-c1cc3c(c(=O)n1C2)COC(=O)[C@]3(O)CC | Not active; Compound Showed Lower Cytotoxicity Compared To Sn38 | Not active; Compound Showed Lower Cytotoxicity Compared To Sn38 | Not active; Compound Showed Lower Cytotoxicity Compared To Sn38 | Not active; Compound Showed Lower Cytotoxicity Compared To Sn38 | Active | Active | Active | Active | Active | inactive | inactive | inactive | inactive | inactive | Active | Active | Active | Active | Active | 99 | Cmax [20]: 50.7 µg/mL; Drug metabolism [21]: 0.725 % ID/g; Activity [22]: 4.6%; Activity [23]: 100%; Activity [24]: 8.97%; Activity [25]: Non-toxic; Activity [26]: Non-toxic; Activity [27]: Non-toxic; Activity [28]: Non-toxic; Drug metabolism [30]: metabolite_notdetected |
| CCc1c2c(nc3ccc(OCc4ccc(O[C@@H]5O[C@H](C(=O)O)[C@@H](O)[C@H](O)[C@H]5O)c(NC(=O)CCNC(=O)COCCOCCNC(=O)COCCOCCNC(=O)CC[C@H](NC(=O)CCCCCCCCCCCCCCCCC(=O)O)C(=O)O)c4)cc13)-c1cc3c(c(=O)n1C2)COC(=O)[C@]3(O)CC | Not active; Compound Showed Lower Cytotoxicity Compared To Sn38 | Not active; Compound Showed Lower Cytotoxicity Compared To Sn38 | Not active; Compound Showed Lower Cytotoxicity Compared To Sn38 | Not active; Compound Showed Lower Cytotoxicity Compared To Sn38 | Active | Active | Active | Active | Active | inactive | inactive | inactive | inactive | inactive | Active | Active | Active | Active | Active | 95 | half-life [31]: 3.65 h; clearance [32]: 0.753 mL/min/kg; Activity [33]: Non-toxic; Activity [34]: Non-toxic; Activity [35]: Toxic; Activity [36]: Non-toxic; Activity [37]: Non-toxic; Activity [38]: Non-toxic; Activity [39]: Non-toxic; Drug metabolism [30]: metabolite_notdetected |

— ChEMBL document CHEMBL6134851, “Comparative Study on Covalent and Noncovalent Endogenous Albumin-Binding β-Glucuronidase-Activated SN38 Prodrugs for Antitumor Efficacy” (J Med Chem, 2025)
